{"source": "patent EP3521435A1", "about": "“A HIGH STRINGENCY SELECTION SYSTEM FOR PROTEIN EXPRESSION IN PROLINE-AUXOTROPHIC CELLS” (Bayer AG, priority 2018, dated 2019)", "key": {"[1]": {"target": "T1, murine P5CS short isoform (Mus musculus, UniProt Q9Z110)", "T1 sequence (Q9Z110 1-793 isoform Q9Z110-2)": "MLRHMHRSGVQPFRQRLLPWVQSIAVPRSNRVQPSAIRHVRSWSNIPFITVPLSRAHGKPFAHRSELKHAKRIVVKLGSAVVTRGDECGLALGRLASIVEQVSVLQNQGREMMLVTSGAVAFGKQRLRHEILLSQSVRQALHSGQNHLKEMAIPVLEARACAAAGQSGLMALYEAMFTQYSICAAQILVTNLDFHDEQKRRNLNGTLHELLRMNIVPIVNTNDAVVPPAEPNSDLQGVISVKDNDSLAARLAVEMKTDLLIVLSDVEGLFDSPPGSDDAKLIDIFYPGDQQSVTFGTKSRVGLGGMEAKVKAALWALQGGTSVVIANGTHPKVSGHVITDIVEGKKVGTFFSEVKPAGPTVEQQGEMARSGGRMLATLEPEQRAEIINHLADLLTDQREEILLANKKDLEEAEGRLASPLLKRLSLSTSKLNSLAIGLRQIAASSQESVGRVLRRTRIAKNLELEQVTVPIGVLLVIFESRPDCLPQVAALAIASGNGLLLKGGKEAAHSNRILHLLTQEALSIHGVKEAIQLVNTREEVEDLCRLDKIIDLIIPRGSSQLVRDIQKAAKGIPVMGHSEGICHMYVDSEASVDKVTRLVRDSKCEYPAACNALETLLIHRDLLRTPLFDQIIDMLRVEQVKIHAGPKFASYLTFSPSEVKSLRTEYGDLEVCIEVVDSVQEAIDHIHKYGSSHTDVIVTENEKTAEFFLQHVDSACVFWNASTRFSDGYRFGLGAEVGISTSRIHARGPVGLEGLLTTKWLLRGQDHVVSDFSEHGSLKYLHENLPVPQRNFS", "conditions": "Hu et al.; cited from earlier work"}, "CHO-K1 cells": {"test_system": "CHO-K1 cells", "assay": "Flow cytometric analysis of GFP expression (MFI, high fluorescing cells) in stably selected cell populations", "format": "cell-based, Chinese hamster", "conditions": "day 15 post-transfection, pJF1555", "description": "To efficiently test the impact of different procedures on improving selection stringency, experimental testing in stable cell populations was performed. As test molecules, enhanced green fluorescent protein (GFP) as well as a human IgG1 were chosen. CHO-K1 cells adapted to growth in suspension in defined medium were obtained from SAFC and cultivated in EX-CELL CD CHO Fusion medium (SAFC 14365C). Custom-made EX-CELL CD CHO Fusion medium without L-Proline (Pro) and without L-Ornithine (Orn) (\"proline-free medium\") was obtained from SAFC. The expression vector system was based on modified versions of \"CET 1019 AS-puro-SceI\" and \"CET 1019 AD-puro-SceI\" for GFP and human IgG1, respectively, from Merck-Millipore, containing the Puromycin selection marker (Puromycin N-acetyl-transferase) known to exert a high selection stringency. To minimize variations in cell populations derived from using different transfections or different vectors, the first series of experiments were conducted using vectors into which a P5CS expression cassette was cloned upstream of a UCOE element, in addition to the Puromycin selection marker present downstream of a gene of interest. This way, it was possible to pool different transfections using the same vector to obtain a common starting point, and split the mixture according to different selection conditions, minimizing any variations that are not due to selection conditions themselves. Expression of long and short isoform of murine P5CS (Protein: Delta-1-pyrroline-5-carboxylate synthase; Gene: Aldh18a1; UniProtKB accession number: Q9Z110-1 & Q9Z110-2) was driven by a SV40 promoter. A SV40 polyadenylation sequence was used at the 3' end of the gene. More details can be found in Table 1. Typically, CHO cells were cultivated in EX-CELL CD CHO Fusion medium containing 6 mM GlutaMAX (Thermo Fisher, 35050-38) (\"CD-Fusion medium\") at 37 °C with 5% CO2. Cells were grown to logarithmic phase under shaking conditions for transfections. 1e7 cells/cuvette were transfected using nucleofection (Amaxa Nucleofector II, following the manufacturer's recommendations) with 5 µg of linearized DNA. After transfection, cells were taken up in 1 ml medium and transferred into 1 well of a 6 well microtiter plate (MTP) already containing 1 ml medium. The cells were incubated for 24 h without shaking, after which 9 ml medium were added and cells were washed (either in standard or proline-free medium). Multiple transfections were pooled, if applicable. Cells were adjusted to 2e5 viable cells/ml and 10 ml were transferred to T-25 flasks. Reference cell populations were selected using 10 µg/ml Puromycin in CD-Fusion medium. For P5CS-based selection, EX-CELL CD CHO Fusion medium (custom-made, SAFC) containing 6 mM GlutaMAX without proline and without ornithine was used (\"proline-free\" or \"CD-Fusion w/o Pro\" medium), with or without additional selection pressure.\nCell viability of the different populations was monitored over time. As soon as cell populations appeared to recover from selection pressure, cells were transferred to Shake Flask or TubeSpins for expansion in suspension under shaking conditions. Subsequently, stable cell populations transfected with IgG were seeded at 2e5 viable cells/ml for batch fermentation without selection pressure (i.e. standard CD-Fusion medium containing proline and no other selective agents). The cells were cultivated for 5-10 days, viable cell densities and productivity were monitored over time. IgG titers were determined using Poros A-HPLC method. Typically, final batch titers were recorded at a time point at which majority of cultures had around 70% viability. Stable cell populations transfected with GFP vector were subjected to analysis by flow cytometry using Guava easyCyte 8HT Benchtop Flow Cytometer (Millipore). 250 µl of cell culture were transferred to 96 MTP and washed with PBS. Dead cells were excluded from analysis using propidium iodide (PI). […]"}, "[2]": {"conditions": "CD-Fusion w/o Pro + 0.2 mM Orn + 10 µg/ml Puromycin"}, "[3]": {"conditions": "CD-Fusion w/o Pro + 1 mM Orn + 10 µg/ml Puromycin"}, "[4]": {"conditions": "CD-Fusion w/o Pro + 5 mM Orn + 10 µg/ml Puromycin"}}}
{"smiles": "NCCC[C@H](N)C(=O)O", "note": "[Orn, L-Ornithine]", "values": [{"measurement": "Ki", "setting": "[1]", "value": "~250", "unit": "µM"}, {"measurement": "Frequency of high fluorescing cells", "setting": "CHO-K1 cells; CD-Fusion w/o Pro + 0.2 mM Orn", "value": 2.4, "unit": "%"}, {"measurement": "Median Fluorescence Intensity (MFI) (yellow)", "setting": "CHO-K1 cells; CD-Fusion w/o Pro + 0.2 mM Orn", "value": 3337}, {"measurement": "Frequency of high fluorescing cells", "setting": "CHO-K1 cells; [2]", "value": 4.1, "unit": "%"}, {"measurement": "Median Fluorescence Intensity (MFI) (yellow)", "setting": "CHO-K1 cells; [2]", "value": 4665}, {"measurement": "Frequency of high fluorescing cells", "setting": "CHO-K1 cells; CD-Fusion w/o Pro + 0.25 mM Ornithine", "value": 6.3, "unit": "%"}, {"measurement": "Frequency of high fluorescing cells", "setting": "CHO-K1 cells; CD-Fusion w/o Pro + 0.5 mM Ornithine", "value": 4.1, "unit": "%"}, {"measurement": "Frequency of high fluorescing cells", "setting": "CHO-K1 cells; CD-Fusion w/o Pro + 1 mM Orn", "value": 2.4, "unit": "%"}, {"measurement": "Median Fluorescence Intensity (MFI) (yellow)", "setting": "CHO-K1 cells; CD-Fusion w/o Pro + 1 mM Orn", "value": 3121}, {"measurement": "Frequency of high fluorescing cells", "setting": "CHO-K1 cells; [3]", "value": 2.8, "unit": "%"}, {"measurement": "Median Fluorescence Intensity (MFI) (yellow)", "setting": "CHO-K1 cells; [3]", "value": 3739}, {"measurement": "Frequency of high fluorescing cells", "setting": "CHO-K1 cells; CD-Fusion w/o Pro + 1 mM Ornithine", "value": 2.3, "unit": "%"}, {"measurement": "Frequency of high fluorescing cells", "setting": "CHO-K1 cells; CD-Fusion w/o Pro + 2 mM Ornithine", "value": 0.7, "unit": "%"}, {"measurement": "Frequency of high fluorescing cells", "setting": "CHO-K1 cells; CD-Fusion w/o Pro + 3 mM Ornithine", "value": 2.6, "unit": "%"}, {"measurement": "Frequency of high fluorescing cells", "setting": "CHO-K1 cells; CD-Fusion w/o Pro + 4 mM Ornithine", "value": 1.5, "unit": "%"}, {"measurement": "Frequency of high fluorescing cells", "setting": "CHO-K1 cells; CD-Fusion w/o Pro + 5 mM Orn", "value": 0.5, "unit": "%"}, {"measurement": "Median Fluorescence Intensity (MFI) (yellow)", "setting": "CHO-K1 cells; CD-Fusion w/o Pro + 5 mM Orn", "value": 1435}, {"measurement": "Frequency of high fluorescing cells", "setting": "CHO-K1 cells; [4]", "value": 6.1, "unit": "%"}, {"measurement": "Median Fluorescence Intensity (MFI) (yellow)", "setting": "CHO-K1 cells; [4]", "value": 4103}, {"measurement": "Frequency of high fluorescing cells", "setting": "CHO-K1 cells; CD-Fusion w/o Pro + 5 mM Ornithine", "value": 1.7, "unit": "%"}]}
